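Grown in 96-well plates, cells were treated for 48 hours with each compound at five concentrations. Insufficient inhibition: endpoint recorded as highest concentration tested. Definition used: TGI = concentration required for complete inhibition of growth.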
Columns and labels:
Test in all cases: NCI anticancer screen, dose series, 48 h
[1] = test system: DU-145 prostate
[2] = test system: RPMI-8226 leukemia
[3] = test system: SNB-19 CNS
[4] = test system: SF-295 CNS
[5] = test system: HCT-116 colon
[6] = test system: K-562 leukemia
[7] = test system: NCI/ADR-RES ovarian
[8] = test system: A498 renal
[9] = test system: UO-31 renal
[10] = test system: HCT-15 colon

| Structure (SMILES) | TGI [1] [µM] | TGI [2] [µM] | TGI [3] [µM] | TGI [4] [µM] | TGI [5] [µM] | TGI [6] [µM] | TGI [7] [µM] | TGI [8] [µM] | TGI [9] [µM] | TGI [10] [µM] |
| --- | --- | --- | --- | --- | --- | --- | --- | --- | --- | --- |
| C#C[C@]1(O)CC[C@H]2[C@@H]3CCC4=C/C(=N/OC(=O)c5cccc6c(=O)c7ccccc7[nH]c56)CCC4[C@H]3CC[C@@]21CC (stereo not given in full) | > 100 | 10.6 | > 100 | > 100 | > 100 | > 82.3 | > 100 | > 100 | > 84.3 | > 47.7 |
| O=C1NC(=Nc2ccccc2)C(=Nc2ccccc2)N1c1ccccc1 | 25.2 | 76.8 | 31.4 | 29.4 | 32.3 | 72.2 | 30.6 | 31 | 30.1 | 28.2 |
| C1=NCCOCCN=Cc2ccc(cc2)OCc2cccc(n2)COc2ccc1cc2 | > 100 | > 100 | > 100 | > 100 | > 100 | > 100 | > 100 | > 100 | > 100 | > 100 |
| COc1ccc2c(c1OC)C(=O)O[C@@H]2[C@H]1c2c(cc3c(c2OC)OCO3)CCN1C | > 100 | > 100 | > 100 | > 100 | > 100 | > 100 | > 100 | > 100 | > 100 | > 100 |
